Source: patent US7524849B2, “5-arylpyrimidines as anticancer agents” (Wyeth Holdings Corporation, priority 2003, dated 2009)
Read-outs that look alike come from different tables or passages of the source. Marks after values point to notes of the source that are not given here.

Columns and labels:
COLO 205 cells = assay: MTS cytotoxicity test with COLO 205 cells; format: cell-based, human; settings: three days with compound
How it was run: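 COLO 205 human colon carcinoma cells, 1000/well, exposed for three days at 37 °C to nine 2-fold dilutions, top final concentration typically 5 μM. MTS formazan absorbance normalised to a time-0 plate; IC50 taken as concentration halfway between untreated maximum and high-drug minimum.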

KB cells = assay: MTS cytotoxicity test with KB cells; format: cell-based, human; settings: mean of 2 experiments
Text: (§1) Human cancer cell lines, unless otherwise noted, are obtained from the American Type Culture Collection (Rockville, Md.). The following drug-sensitive parental cell lines, and their derived drug-resistant counterparts, are obtained from the originators as listed: (a) S1 (parental line from a subclone of human colon carcinoma line LS174T) and derived S1-M1-3.2 (herein called S1-M1) which expresses the MXR drug transporter protein, are provided by Dr. L. Greenberger, Wyeth Research (Rabindran, S. K., He, H., Singh, M., Brown, E., Collins, K. I., Annable, T., and Greenberger, L. M. Reversal of a novel multidrug resistance mechanism in human colon carcinoma cells by fumitremorgin C. Cancer Res., 58: 5850-5858, 1998); (b) parental HL-60 human promyelocytic leukemia line and derived HL-60/ADR, which expresses the MRP1 drug transporter protein, are provided by Dr. M. Center, University of Kansas (McGrath, T., and Center, M. S. Adriamycin resistance in HL60 cells in the absence of detectable P-glycoprotein. Biochem. Biophys. […] J. Biol. Chem., 261: 7762-7770, 1986) via Dr. L. Greenberger, Wyeth Research.
(§2) The assay, which is sold in kit form by Promega (Madison, Wis.; CellTiter 96 AQueous Non-Radioactive Cell Proliferation Assay), is based on the conversion by viable cells, but not by dead cells, of the tetrazolium salt, MTS (3-(4,5-dimethylthiazol-2-yl)-5-(3-carboxymethoxyphenyl)-2-(4-sulphophenyl)-2H-tetrazolium, inner salt), into a water-soluble colored formazan which is detected by spectrophotometry. Compounds are tested at nine concentrations, in order to determine IC50 values. For the test procedure, cells are harvested by trypsinization, washed, counted and distributed to wells of 96-well flat-bottom microtiter plates at 1000 cells per well in 200 μL of medium. In addition, one row of wells on a separate plate receives cells as above (“time 0” plate). All plates are incubated at 37° in humidified 5% CO2 in air for about 24 hr.
(§3) On day 2, compounds for test are diluted and added to wells. Compounds are dissolved in DMSO at 10 mg/mL. For each compound, nine serial 2-fold dilutions are prepared in DMSO. Ten μL of each dilution in DMSO are transferred to 100 μL of medium, mixed well, and then 5 μL of this dilution are transferred in quadruplicate to wells containing cells. […] Plates are returned to the incubator for three days. At the time of drug addition to the experimental plates, the MTS assay is run on the “time 0” plate. This produces the “time 0 MTS value” which is related to the number of viable cells per well at the time of drug addition.
(§4) After three days of culture with test compounds (day 5 overall), the MTS assay is done on all wells of the experimental plates. The absorbance values of the quadruplicate sample wells are averaged and divided by the average of the “time 0” values. […] The nine values for each compound are plotted against concentration, and the concentration that produces a relative color yield half way between the maximum and minimum is taken as the IC50 value.

KB-8-5 cells = assay: MTS cytotoxicity test with KB-8-5 cells (moderate P-glycoprotein); format: cell-based, human; settings: for Ratio 8.5/KB: IC50 on KB 8.5 cells/IC50 on KB cells; for IC50: KB 8.5 cells, mean of 2 experiments
Text: as §1, §2, §3, §4

KB-V1 cells = assay: MTS cytotoxicity test with KB-V1 cells (very high P-glycoprotein); format: cell-based, human; settings: for Ratio VI/KB: IC50 on KB VI cells/IC50 on KB cells; for IC50: KB VI cells, mean of 2 experiments
Text: as §1, §2, §3, §4

HL-60 cells = assay: MTS cytotoxicity test with HL-60 cells; format: cell-based, human; settings: mean of 2 experiments
Text: as §1, §2, §3, §4
(§5) HL-60/ADR cells overexpress the multidrug resistance protein MRP1 which mediates resistance to some chemotherapeutics (Gottesman, M. M., Fojo, T., and Bates, S. E. Multidrug resistance in cancer: role of ATP-dependent transporters. Nature Rev. Cancer, 2: 48-58, 2002). The IC50 values of representative examples of this invention, as well as reference compounds, on HL-60/ADR are compared to values on the sensitive parental HL-60 line.

HL-60/ADR cells = assay: MTS cytotoxicity test with HL-60/ADR cells (MRP1); format: cell-based, human; settings: for IC50: HL-60/ADR cells, mean of 2 experiments; for Ratio: IC50 on HL-60/ADR cells/IC50 on HL-60 cells
Text: as §1, §2, §3, §4, §5

S1 cells = assay: MTS cytotoxicity test with S1 cells; format: cell-based, human; settings: mean of 2 experiments
Text: as §1, §2, §3, §4
as §5, with “S1-M1” for “HL-60/ADR”, “MXR transporter” for “multidrug resistance protein MRP1”, “Miltidrug” for “Multidrug”, “S1” for “HL-60”

S1-M1 cells = assay: MTS cytotoxicity test with S1-M1 cells (MXR); format: cell-based, human; settings: for Ratio: IC50 on S1-M1 cells/IC50 on S1 cells; for IC50: S1-M1 cells, mean of 2 experiments
Text: as §1, §2, §3, §4
as §5, with “S1-M1” for “HL-60/ADR”, “MXR transporter” for “multidrug resistance protein MRP1”, “Miltidrug” for “Multidrug”, “S1” for “HL-60”

[1] = test system: H157 Human Non-Small Cell Lung Carcinoma; settings: for growth of xenografts: H157 NSCLC;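 on all read-outs here: subcutaneous flank tumors in female athymic nu/nu mice, staged near 100 mm^3 on day 0, tumor volume from caliper measurements, vehicle-dosed controls on the same schedule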
Protocol: The ability of compounds of this invention to inhibit tumor growth in animals is studied in the athymic mouse xenograft standard pharmacological test. Female nu/nu mice in an outbred albino background are obtained from Charles River Laboratories (Wilmington, Mass.). Animals are injected subcutaneously on the flank with the desired tumor cell suspension. Several days later, mice with tumors of approximately 100 mm^3 are selected from those injected (staged) and randomly distributed into groups of 5-10. The day of staging is called day 0. Compounds of the invention, formulated in saline, are administered to animals by intravenous injection or oral gavage on various schedules starting on day 0 or 1, as noted in the tables. The control group in each experiment is dosed with vehicle on the same schedule. Tumor size is measured every 3-7 days with calipers in two orthogonal dimensions, and tumor volume is calculated from the formula volume=[(length×width^2)/2].
Tumor/Control (T/C) is obtained by dividing the mean tumor volume of the treated group by the mean tumor volume of the control group on each measurement day. […] A p value≦0.05, determined by one-side Student's t-test, is required for statistical significance. A treatment dose is defined as toxic if more than 30% of the animals die from a compound-related toxicity.

[2] = 1 mg/kg PO, schedule days 1, 7, H157
[3] = 5 mg/kg PO, schedule days 1, 7, H157
[4] = 5 mg/kg IV, schedule day 0, H157 (Table 11)
[5] = 5 mg/kg PO, schedule day 0, H157
[6] = 1.5 mg/kg IV, schedule days 0, 7, H157
[7] = 3 mg/kg IV, schedule days 0, 7, H157

SMILES	Ratio 8.5/KB (KB-8-5 cells)	Ratio VI/KB (KB-V1 cells)	Ratio (HL-60/ADR cells)	Ratio (S1-M1 cells)	IC50 (COLO 205 cells; Homo sapiens, 72 h) [nM]	IC50 (KB cells; Homo sapiens) [nM]	IC50 (KB-8-5 cells; Homo sapiens) [nM]	IC50 (KB-V1 cells; Homo sapiens, KB-V1) [nM]	IC50 (HL-60 cells; Homo sapiens) [nM]	IC50 (HL-60/ADR cells; Homo sapiens, HL60/ADR) [nM]	IC50 (S1 cells; Homo sapiens) [nM]	IC50 (S1-M1 cells; Homo sapiens) [nM]	also measured
CNCCCOc1cc(F)c(-c2c(Cl)nc(-c3cnccn3)nc2N[C@@H](C)C(F)(F)F)c(F)c1.Cl [Example 24a, 6-Chloro-5-{2,6-difluoro-4-[3-(methylamino)propoxy]phenyl}-2-pyrazin-2-yl-N-[(1S)-2,2,2-trifluoro-1-methylethyl]pyrimidin-4-amine hygrogen chloride]	3.5	58	1.0	2.7	–	–	–	–	–	–	–	–	IC50 (COLO 205 cells): 8.9 nM; IC50 (KB cells): 7 nM; IC50 (KB-8-5 cells): 24 nM; IC50 (KB-V1 cells): 405 nM; IC50 (HL-60 cells): 6.6 nM; IC50 (HL-60/ADR cells): 6.3 nM; IC50 (S1 cells): 20 nM; IC50 (S1-M1 cells): 53 nM; T/C on day 0 [1, 2]: 0.96; T/C on day 4 [1, 2]: 0.73*; T/C on day 7 [1, 2]: 0.70; T/C on day 10 [1, 2]: 0.58; T/C on day 13 [1, 2]: 0.50*; T/C on day 0 [1, 3]: 0.98; T/C on day 4 [1, 3]: 0.64**; T/C on day 7 [1, 3]: 0.51**; T/C on day 10 [1, 3]: 0.16**; T/C on day 13 [1, 3]: 0.12**; growth of xenografts ([1]; orally on days 1 and 7 with 5 or 1 mg/kg/dose): inhibits the growth
CNCCCOc1cc(F)c(-c2c(Cl)nc(-c3ccccn3)nc2N[C@@H](C)C(F)(F)F)c(F)c1.Cl [Example 29a, 6-Chloro-5-{2,6-difluoro-4-[3-(methylamino)propoxy]phenyl}-2-pyridin-2-yl-N-[(S)-2,2,2-trifluoro-1-methylethyl]pyrimidin-4-amine hydrogen chloride]	3.4	69	1.0	2.7	5.2	6.2	21	423	6.9	6.8	7.9	21	T/C on day 0 [1, 4]: 1.03; T/C on day 2 [1, 4]: 0.34**; T/C on day 7 [1, 4]: Toxic; T/C on day 0 [1, 5]: 1.02; T/C on day 2 [1, 5]: 0.43**; T/C on day 7 [1, 5]: 0.37**; T/C on day 9 [1, 5]: 0.33**; T/C on day 14 [1, 5]: 0.25**; growth of xenografts ([1]; orally on day 0 with 5 mg/kg): inhibits the growth
CNCCCOc1cc(F)c(-c2c(Cl)nc(-n3cccn3)nc2N[C@@H](C)C(F)(F)F)c(F)c1.Cl [Example 32a, 6-Chloro-5-{2,6-difluoro-4-[3-(methylamino)propoxy]phenyl}-2-(1H-pyrazol-1-yl)-N-[(1S)-2,2,2-trifluoro-1-methylethyl)pyrimidin-4-amine Hydrogen Chloride]	14	242	0.8	0.9	2.4	2.4	32	569	2.6	2.2	9.9	8.7	T/C on day 0 [1, 6]: 0.95; T/C on day 4 [1, 6]: 0.89; T/C on day 7 [1, 6]: 0.63*; T/C on day 13 [1, 6]: 0.48*; T/C on day 0 [1, 7]: 0.95; T/C on day 4 [1, 7]: 0.72; T/C on day 7 [1, 7]: 0.46**; T/C on day 13 [1, 7]: 0.10**; growth of xenografts ([1]; intravenously on days 0 and 7 at 3 or 1.5 mg/kg/dose): inhibits the growth
CC(=O)O[C@H]1C(=O)[C@@]2(C)[C@H]([C@H](OC(=O)c3ccccc3)[C@]3(O)C[C@H](OC(=O)[C@H](O)[C@@H](NC(=O)c4ccccc4)c4ccccc4)C(C)=C1C3(C)C)[C@]1(OC(C)=O)CO[C@@H]1C[C@@H]2O [Paclitaxel, reference compound]	–	–	–	–	3.3	–	–	2010	3	3.5	4.2	2.7	–
CC[C@]1(O)C[C@H]2CN(CCc3c([nH]c4ccccc34)[C@@](C(=O)OC)(c3cc4c(cc3OC)N(C=O)[C@H]3[C@@](O)(C(=O)OC)[C@H](OC(C)=O)[C@]5(CC)C=CCN6CC[C@]43[C@@H]65)C2)C1 [Vincristine, reference compound]	26	925	9.6	0.6	2.6	2.2	58	2040	2.5	24	14	7.9	–
